Measured values published in patent US12629370B2, “Treatment of prostate cancer” (Sumitomo Pharma Co., Ltd., priority 2016, dated 2026).
Values joined by “and” are separate entries in the source; they are usually repeats but may differ in a detail not shown here. Identical values can stand only once.

Tests used:
[1] = tested on: serum LH, FSH, DHT and SHBG; assay: Example 6: serum LH, FSH, DHT and SHBG; type: in vivo, human; details: for serum LH, FSH and DHT concentrations: all dose levels
[2] = tested on: PSA; assay: Example 8: PSA response; type: in vivo, human
Source text: Eligible men were aged ≥18 years with a histologically confirmed diagnosis of prostate adenocarcinoma, and were candidates for ADT for the management of hormone-sensitive prostate cancer with one of the following clinical disease states: advanced localized disease not suitable for primary surgical or radiation therapy; evidence of PSA biochemical or clinical relapse following primary surgery or radiation therapy of curative intent; or newly diagnosed metastatic disease that was asymptomatic and without visceral involvement. Additional inclusion criteria at screening included: eugonadal serum testosterone >150 ng/dl (5.2 nmol/L); serum PSA concentration >2 ng/ml (or, when applicable, >0.2 ng/ml following radical prostatectomy or >2 ng/mL above the post-radiotherapy nadir following radiotherapy); body mass index ≥18.0 at screening and/or baseline (i.e., the subject's BMI prior to treatment commencing); and Eastern Cooperative Oncology Group (ECOG) performance status of 0 or 1. Patients with advanced, localized MON1 or M1 disease with clinically significant symptoms or visceral involvement, who required immediate GnRH therapy, chemotherapy, or radiation therapy were not eligible for the trial.
PSA levels were measured at each visit.

[3] = tested on: patients with advanced prostate cancer; assay: Example 8: quality of life, Aging Male Survey (AMS); type: in vivo, human; details: for AMS total score, mean: Baseline
Description: Quality of life (QoL) was assessed throughout the study and the follow-up period. The 25-item Prostate Cancer Module of the European Organization for Research and Treatment of Cancer Quality of Life Questionnaire (EORTC QLQ-PR25), Aging Male Survey (AMS), and core 30-item EORTC Quality of Life Questionnaire (EORTC QLQ-C30) were completed at screening, day 1 of weeks 5, 13, 25, 37, and 49, and, if applicable, at the follow-up visits.

[4] = tested on: PSA; assay: Example 9: PSA; type: in vivo, human
Description: Eligible male patients were aged ≥18 years with a histologically confirmed diagnosis of localized, intermediate-risk prostate cancer, for whom 6-month neoadjuvant and adjuvant androgen deprivation therapy (ADT) to external beam radiation therapy (EBRT) was indicated. The criteria for establishing intermediate-risk prostate cancer included the presence of one of the following, without any high-risk feature: T2b-T2c disease, Gleason score 7, or prostate-specific antigen (PSA) 10-20 ng/mL. Additional inclusion criteria included: EBRT scheduled to begin ≥12 weeks after baseline visit; screening serum testosterone >150 ng/dL (5.2 nmol/L); screening PSA concentration >2 ng/ml; body mass index ≥18.0 at screening or baseline (i.e., the subject's BMI prior to treatment commencing); Eastern Cooperative Oncology Group performance status of 0 or 1 at screening. Based on investigator discretion and clinical assessment of the patient's overall medical and disease status, participation was allowed for older patients with high-risk disease (e.g., based on Gleason score or tumor status) who were deemed likely to benefit from 6 months of neoadjuvant/adjuvant ADT. Most patients had intermediate-risk disease. However, a few patients, based on Gleason score or tumor, node, and metastasis staging system, were technically of higher than intermediate risk.
Both treatment arms received treatment for 24 weeks. Patients remained on treatment for at least 12 weeks before the start of external beam radiation treatment (EBRT), which was initiated for most patients between Week 13, Day 1 and Week 15, Day 1. EBRT began no later than day 1, week 17.
Patients were evaluated every 4 weeks during the treatment period (including day 1, week 25), at end of treatment (defined as week 29), during follow-up (week 33), and at end of study (EOS).
Samples for testosterone, luteinizing hormone (LH), FSH, and PSA concentrations were taken at screening, on day 1 of the first week (additionally days 2 and 4 for testosterone and LH), and on day 1 of weeks 2, 3, 5, 9, 13, 17, 21, 25, 29, 33, and 37 thereafter. […] Suppression of FSH was less profound than that of LH, but consistent with the literature, and was greater than that observed with GnRH agonists.

[5] = tested on: rats; details: rat, in vivo
[6] = FIG. 22
Source text: Table printed on a drawing sheet, FIG. 22
First reader's note: The rows 'Plasma' and 'Urine' are section headings giving the matrix; the raised marks a and c are printed, but their footnotes are not on the sheet, and the meaning of the values in brackets is not stated.)

[7] = FIG. 23
Source text: Table printed on a drawing sheet, FIG. 23
First reader's note: The rows 'Plasma' and 'Urine' are section heads (matrix); the sheet explains neither the footnote marks a and b nor the values in brackets.

[8] = tested on: healthy men; assay: Example 7: safety and tolerability in healthy men
Description: The 40 mg dose was administered once per day with a single load dose of 360 mg on Day 1 of the 14 days of treatment administration. For the 20 mg dosages, one 20 mg dose was administered with loading doses of 320 mg on Day 1, 240 mg on Day 2, and 160 mg on Day 3, and the other 20 mg dose was administered with loading doses of 320 mg on Day 1 and 160 mg on Day 2. […] The 40 mg dose was administered with loading doses of 320 mg and 160 mg on Days 1 and 2 of treatment, respectively.

## CONC(=O)Nc1ccc(-c2sc3c(c2CN(C)C)c(=O)n(-c2ccc(OC)nn2)c(=O)n3Cc2c(F)cccc2F)cc1 [Compound 1, N-(4-(1-(2,6-difluorobenzyl)-5-((dimethylamino)methyl)-3-(6-methoxy-3-pyridazinyl)-2,4-dioxo-1,2,3,4-tetrahydrothieno[2,3-d]pyrimidin-6-yl)phenyl)-N′-methoxyurea]
[1]; Part A
  serum SHBG, baseline versus postdose: no particular changes
  serum LH, FSH and DHT concentrations: rapidly suppressed
[1]; Part B
  serum SHBG, baseline versus postdose: no particular changes
  serum LH, FSH and DHT concentrations: rapidly suppressed
[2]; 80 mg QD
  Median time from first dose to PSA nadir: 16.1 Weeks
[2]; 120 mg QD
  Median time from first dose to PSA nadir: 12.3 Weeks
[2]; after 4 weeks of treatment
  patients with ≥50% serum PSA reduction: Eighty-three percent
  patients with ≥90% serum PSA reduction: Eight percent
[2]; by Week 13 Day 1 visit
  average PSA level: less than 0.4 ng/ml
[2]; by Week 21 Day 1 visit
  average PSA level: less than 0.2 ng/ml
[2]; end of 24 weeks dosing
  PSA % responses in most patients: exceed 90%
[2]; in vivo
  PSA response following initiation of treatment compared with leuprorelin: more rapid
[3]; 80 mg QD
  AMS total score, mean: 29.8
[3]; 80 mg QD, EOS
  AMS total score after treatment, mean percent change from baseline: 21.9%
[3]; 80 mg QD, EOT
  AMS total score after treatment, mean percent change from baseline: 30.5%
[3]; 80 mg QD, Follow-up
  AMS total score after treatment, mean percent change from baseline: 31.8%
[3]; 80 mg QD, W5, D1
  AMS total score, mean percent change from baseline: 3.9%
[3]; 80 mg QD, W13, D1
  AMS total score, mean percent change from baseline: 14.8%
[3]; 80 mg QD, W25, D1
  AMS total score, mean percent change from baseline: 20.3%
[3]; 80 mg QD, W49, D1
  AMS total score, mean percent change from baseline: 30.1%
[3]; 120 mg QD
  AMS total score, mean: 29.9
[3]; 120 mg QD, EOS
  AMS total score after treatment, mean percent change from baseline: 25.3%
[3]; 120 mg QD, Follow-up
  AMS total score after treatment, mean percent change from baseline: 25.2%
[3]; 120 mg QD, W5, D1
  AMS total score, mean percent change from baseline: 10.9%
[3]; 120 mg QD, W13, D1
  AMS total score, mean percent change from baseline: 17.3%
[3]; 120 mg QD, W25, D1
  AMS total score, mean percent change from baseline: 20.4%
[3]; 120 mg QD, W37, D1
  AMS total score, mean percent change from baseline: 24.5%
[3]; 120 mg QD, W49, D1
  AMS total score, mean percent change from baseline: 24.4%
[3]; after discontinuation of 48 weeks of treatment
  QOL (AMS, EORTC QLQ-PR25 sexual activity) during 12 week recovery: appeared to improve more in the Compound 1 group than the leuprorelin group
[4]; Baseline
  Median PSA: 7.3 µg/L
[4]; Week 24
  Median PSA: 0.07 µg/L
[4]; Week 28/EOT visit
  Median PSA: 0.07 µg/L
[4]; Week 32/follow-up
  Median PSA: 0.2 µg/L
[4]; Week 36/EOS
  Median PSA: 0.2 µg/L
[4]; by Week 13 Day 1 visit
  average PSA level: < 0.2 ng/mL
[4]; by the end of 12 weeks
  patients achieving PSA values less than 0.2 ng/ml: 6 of 30
[4]; end of 8 weeks of dosing, before radiation therapy
  PSA % responses in most patients: exceed 89%
[5]
  adverse effect observed in non-clinical toxicity studies: phospholipidosis
[6]
  AUC0-24 (ng•h/mL): 1358 (53.1) ng•h/mL and 1878 (51.9) ng•h/mL
  CLr (L/h): 7.29 (13.2) L/h and 7.25 (36.2) L/h and 7.36 (25.9) L/h
  Fe (%): 0.934 (39.4) % and 2.20 (74.7) % and 2.61 (62.3) % and 3.43 (29.4) %
[7]
  CLr (L/h): 6.92 (29.5) L/h and 5.51 (26.7) L/h and 6.42 (25.0) L/h and 7.66 (17.4) L/h and 7.43 (16.2) L/h
  Fe (%): 1.44 (31.8) % and 1.35 (40.0) % and 1.76 (38.6) % and 1.89 (20.2) % and 2.88 (45.6) %
  t1/2(h): 50.6 (20.2) h and 49.4 (30.6) h and 36.5 (17.4) h
[8]; across all dose cohorts
  most common treatment emergent adverse events: bradycardia, hot flush, and headache
[8]; in vivo
  changes in QT/QTc intervals: consistent with those described in the literature with other medical castration agents
  most common drug-related TEAE: hot flash
[8]; single and multiple doses
  overall safety and tolerability: safe and well tolerated
[8]; single dose or multiple dose for 14 or 28 days
  deaths, SAEs or severe AEs: no deaths, serious adverse events (SAEs), or severe AEs
[8]; without symptoms or changes in total bilirubin
  transaminases: Mild to moderate transaminase elevations
